{
  "source": "patent US7723373B2",
  "about": "“Indole-3-sulphur derivatives” (AstraZeneca AB, priority 2002, dated 2010)",
  "target": "T1, rhCRTh2 (Homo sapiens, UniProt Q9Y5Y4)",
  "T1 construct": "expressed in transfected cells; host or cells: HEK cells (membrane preparation)",
  "T1 sequence (Q9Y5Y4 1-395)": "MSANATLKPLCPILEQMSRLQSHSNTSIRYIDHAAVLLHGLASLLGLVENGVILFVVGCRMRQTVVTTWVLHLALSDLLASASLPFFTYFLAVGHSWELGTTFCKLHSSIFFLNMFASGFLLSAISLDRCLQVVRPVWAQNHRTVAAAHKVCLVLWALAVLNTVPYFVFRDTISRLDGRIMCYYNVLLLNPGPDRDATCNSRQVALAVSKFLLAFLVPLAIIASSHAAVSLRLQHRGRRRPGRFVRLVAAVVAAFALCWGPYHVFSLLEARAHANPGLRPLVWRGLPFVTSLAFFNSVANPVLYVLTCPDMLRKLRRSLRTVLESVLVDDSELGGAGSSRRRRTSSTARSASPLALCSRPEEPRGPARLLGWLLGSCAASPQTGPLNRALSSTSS",
  "test": "Ligand binding assay ([3H]PGD2 SPA, HEK cell membranes)",
  "conditions": "[3H]PGD2 binding to membranes of HEK cells expressing rhCRTh2/Gα16, SPA beads, 2 hours at room temperature",
  "protocol": "[^3H]PGD2 was purchased from Perkin Elmer Life Sciences with a specific activity of 100-210 Ci/mmol. All other chemicals were of analytical grade.\nHEK cells expressing rhCRTh2/Gα16 were routinely maintained in DMEM containing 10% Fetal Bovine Serum (HyClone), 1 mg/ml geneticin, 2 mM L-glutamine and 1% non-essential amino acids. For the preparation of membranes, the adherent transfected HEKcells were grown to confluence in two layer tissue culture factories (Fisher, catalogue number TKT-170-070E). Maximal levels of receptor expression were induced by addition of […] sodium butyrate for the last 18 hours of culture. The adherent cells were washed once with phosphate buffered saline (PBS, 50 ml per cell factory) and detached by the addition of 50 ml per cell factory of ice-cold membrane homogenisation buffer [20 mM HEPES (pH 7.4), 0.1 mM dithiothreitol, 1 mM EDTA, 0.1 mM phenyl methyl sulphonyl fluoride and 100 μg/ml bacitracin]. […] The final pellet was re-suspended in 4 ml of membrane homogenisation buffer per cell factory used and the protein content determined. […]\nAll assays were performed in Corning clear bottomed, white 96-well NBS plates (Fisher). […] (The optimum coating concentrations were determined for each batch of membranes) The beads were pelleted by centrifugation (800×g for 7 minutes at 4° C.), washed once with assay buffer (50 mM HEPES pH 7.4 containing 5 mM magnesium chloride) and finally re-suspended in assay buffer at a bead concentration of 10 mg/ml.\nEach assay contained 20 μl of 6.25 nM [^3]PGD2, 20 μl membrane saturated SPA beads both in assay buffer and 10 μl of compound solution or 13,14-dihydro-15-keto prostaglandin D2 (DK-PGD2, for determination of non-specific binding Cayman chemical company). […] The assay plate was incubated at room temperature for 2 hours and counted on a Wallac Microbeta liquid scintillation counter (1 minute per well).",
  "data": [
    {"molecule": "5-chloro-3-[(4-chlorophenyl)sulfonyl]-6-cyano-2-methyl-1H-indole-1-acetic acid [Example 6]", "values": [
      {"measurement": "pIC50", "value": 7}
    ]},
    {"molecule": "Cc1c(S(=O)(=O)c2ccc(Cl)cc2)c2cc(Cl)ccc2n1CC(=O)O", "note": "[Example 2, 5-chloro-3-[(4-chlorophenyl)sulfonyl]-2-methyl-1H-indole-1-acetic acid]", "values": [
      {"measurement": "IC50", "value": 7.94, "unit": "nM"}
    ]},
    {"molecule": "Cc1ccc2c(c1)c([S+]([O-])c1ccc(Cl)cc1)c(C)n2CC(=O)O", "note": "(stereo not drawn) [Example 7, 3-[(4-chlorophenyl)sulfinyl]-2,5-dimethyl-1H-indole-1-acetic acid]", "values": [
      {"measurement": "IC50", "value": 251, "unit": "nM"}
    ]}
  ]
}
